Laboratory results published in ChEMBL document CHEMBL3507680, “University of Dundee, Gates Library screen for HepG2 cell viability”.

Assay: Human HepG2 cell viability assay in 384 well format
Type: toxicity, cell-based
Design: dose 125 nL, time 70.5 hour; cytotoxicity at 70.5 h: concentration not given beside the values
Conditions: HepG2 cells, read-out: Inhibition

Structure (SMILES)	cytotoxicity at 70.5 h [%]
O=C(O)c1c(-c2ccncc2)ncc2c1CCN(Cc1ccco1)C2	3.95
CCO[C@@H]1CC[C@H]2[C@H]1OCCN2C(=O)c1nn(C)c2ccccc12	2.67
O=C(C1CC=CC1)N1CCCn2nnc(CNc3ncccn3)c2C1	0.685
CC(C)N(C)Cc1cc(=O)n2c(n1)CN(C(=O)c1ccnnc1)CCC2	-2.81
O=C(CC1CC1)N1CCCn2nnc(CNc3ncccn3)c2C1	-1.8
CN1C(=O)C(c2cccnc2)CC12CCN(CCO)CC2 (stereo unspecified)	-0.847
Cc1noc(C)c1CN1C[C@H]2CNC[C@H]2C1	-2.52
CCC1=N[C@@]2(CC[C@@H]3CN(C(=O)NCc4ccccc4)C[C@@H]32)C(=O)N1	-7.28
CCn1cc2c(n1)C(COC)CN(Cc1ccccn1)C2 (stereo unspecified)	29.7
Cc1ccc(S(=O)(=O)N2CCC3(CC(C(=O)NCC4CC4)=NO3)C2)cc1 (stereo unspecified)	-8.09
CC(C)NC(=O)N1CCC2(CC(=O)N(c3cccc(C#N)c3)C2)C1 (stereo unspecified)	2.44
O=C(NCc1ccccc1)[C@H]1C[C@@H]2CN(S(=O)(=O)C3CC3)C[C@H]1O2	-10.1
CNC(=O)N1C[C@H]2C[C@H](C(=O)Nc3ccccc3)[C@@H](C1)O2	-7.41
c1cnc(OCc2nnc3n2CCN(CC2CC2)C3)nc1	0.759
C1CC(CN2CCOCC3(CCN(C4CCOCC4)C3)C2)CCO1 (stereo unspecified)	-6.07
CCc1ccc(S(=O)(=O)N2CCC3(CC(C(=O)NC)=NO3)C2)cc1 (stereo unspecified)	-10.7
O=C(NCC1CC1)[C@H]1C[C@H]2OCC[C@H]2N(Cc2ccsc2)C1	-4.19
CN(C)CC(=O)N1CCC2(CCN(Cc3ccccn3)C2=O)C1 (stereo unspecified)	-22.9
CCOC1COC2(CCN(Cc3cccc(C)n3)CC2)C1 (stereo unspecified)	0.953
CC(C)CN1C[C@H]2C[C@H](C(=O)NC3CCC3)[C@@H](C1)O2	-1.14
Cc1noc(C)c1CN1C[C@@H]2CC(F)(F)C[C@@H]2C1	-2.12

Structure (SMILES)	cytotoxicity at 70.5 h [%]
CN(C)C(=O)[C@@]12CCO[C@@H]1CCN(Cc1ccc3c(c1)OCO3)C2	1.17
CCOC1COC2(CCN(c3cccc(C)n3)CC2)C1 (stereo unspecified)	-2.34
CCN(CC)Cc1cc(=O)n2c(n1)CN(C(=O)c1ccnnc1)CCC2	-3.81
Cc1noc(C)c1CN1C[C@@H]2C[C@@H](C)O[C@@H]2C1	-3.08
CCS(=O)(=O)N1C[C@@H](OCc2cccnc2)[C@H]2OCCC[C@H]21	6.52
CCOCC1CN(S(C)(=O)=O)Cc2cnn(CC3CCOCC3)c21 (stereo unspecified)	-0.335
Cn1cc(CN2C[C@@H]3COC[C@]3(CNC(=O)c3ccsc3)C2)cn1	-5.87
CN(C)C(=O)[C@@H]1C[C@@H]2CCN(Cc3ccc4c(c3)OCO4)C[C@@H]2O1	1.53
O=C(c1cnccn1)N1CCCC2(COCCN(CC3CC3)C2)C1 (stereo unspecified)	-20.3
Cn1cc(CN2CCCC23CCN(C(=O)c2cccn2C)CC3)cn1	-14.9
Cc1ccc(C(=O)N2Cc3c(CN4CCCCC4)nn(C)c3C2)cc1C	-16.2
c1coc(CN2CCCn3c(CN4CCOCC4)nnc3C2)c1	1.6
Cc1ccc(CN2CCC3(CC2)CC(c2cccnc2)C(=O)N3C)o1 (stereo unspecified)	-2.25
Fc1cnc(N2CCCC3(CCN(Cc4ccsc4)C3)C2)nc1 (stereo unspecified)	4.29
c1ccc(CN2CCOCC3(CCN(C4CCOCC4)C3)C2)cc1 (stereo unspecified)	-2.29
c1ccc(OCc2nnc3n2CCN(CC2CCOCC2)C3)nc1	-0.459
CN(Cc1ccco1)[C@@H]1CN(Cc2ccc(F)cc2)C[C@@H]2CCCO[C@@H]21	2.25
Cc1cccc(CN2C[C@@H]3COC[C@]3(CNC(=O)c3ccsc3)C2)n1	-8.41
Cc1ccc(CN2CCCn3c(nc(CN4CCCC4)cc3=O)C2)s1	-8.86
Cc1nc(CN2CCO[C@H]3[C@@H](OCc4ccccn4)CC[C@@H]32)cs1	-23.4
